Measurements from the OPERA property sets (Mansouri et al. 2018).

SMILES | logP
Cc1nc(-c2ccc(C(C)C(=O)O)cc2)sc1C (stereo unspecified) | 3.36
Cc1csc(-c2ccc(C(C)C(=O)O)cc2Cl)n1 (stereo unspecified) | 3.65
CC(C(=O)O)c1ccc(-c2nccs2)cc1 (stereo unspecified) | 2.79
CC(C(=O)O)c1ccc(-c2nc(C(=O)N(C)C)cs2)cc1 (stereo unspecified) | 2.15
Cc1cnc(-c2ccc(C(C)C(=O)O)cc2)s1 (stereo unspecified) | 3.15
CCc1cnc(-c2ccc(C(C)C(=O)O)cc2)s1 (stereo unspecified) | 3.72
CCc1nc(-c2ccc(C(C)C(=O)O)cc2F)sc1C (stereo unspecified) | 4.44
COCc1csc(-c2ccc(C(C)C(=O)O)cc2)n1 (stereo unspecified) | 2.56
CC(C)c1csc(-c2ccc(C(C)C(=O)O)cc2Cl)n1 (stereo unspecified) | 4.78
COc1cc(C(C)C(=O)O)ccc1-c1nccs1 (stereo unspecified) | 2.47
CC(C(=O)O)c1ccc(-c2nc(C(N)=O)cs2)cc1 (stereo unspecified) | 2.17
Cc1cnc(-c2ccc(C(C)C(=O)O)cc2F)s1 (stereo unspecified) | 3.55
Cc1cnc(-c2ccc(C(C)C(=O)O)cc2Cl)s1 (stereo unspecified) | 3.66
CCCCc1csc(-c2ccc(C(C)C(=O)O)cc2)n1 (stereo unspecified) | 4.83
CCc1cnc(-c2ccc(C(C)C(=O)O)cc2F)s1 (stereo unspecified) | 4.1
CCCCc1csc(-c2ccc(C(C)C(=O)O)cc2Cl)n1 (stereo unspecified) | 5.36
CC(C(=O)O)c1ccc(-c2nccs2)c([N+](=O)[O-])c1 (stereo unspecified) | 2.06
C=CCc1csc(-c2ccc(C(C)C(=O)O)cc2)n1 (stereo unspecified) | 4.11
Cc1nc(-c2ccc(C(C)C(=O)O)cc2Cl)sc1C (stereo unspecified) | 3.94
CC(C(=O)O)c1ccc(-c2nc(-c3ccccc3)cs2)cc1 (stereo unspecified) | 4.95
CC(C(=O)O)c1ccc(-c2nc(C(F)(F)F)cs2)cc1 (stereo unspecified) | 3.78
CC(C(=O)O)c1ccc(-c2nc(CO)cs2)cc1 (stereo unspecified) | 2.25
CCc1cnc(-c2ccc(C(C)C(=O)O)cc2Cl)s1 (stereo unspecified) | 4.39

SMILES | logP
CC(C(=O)O)c1ccc(-c2nccs2)c(N)c1 (stereo unspecified) | 2.45
CSc1cc(C(C)C(=O)O)ccc1-c1nccs1 (stereo unspecified) | 3.02
CC(=O)c1csc(-c2ccc(C(C)C(=O)O)cc2)n1 (stereo unspecified) | 2.65
CC(C(=O)O)c1ccc(-c2nccs2)c(Cl)c1 (stereo unspecified) | 3.39
Cc1csc(-c2ccc(C(C)C(=O)O)cc2F)n1 (stereo unspecified) | 3.52
CC(C(=O)O)c1ccc(-c2nccs2)c(Br)c1 (stereo unspecified) | 3.35
Cc1cc(C(C)C(=O)O)ccc1-c1nccs1 (stereo unspecified) | 3.06
CCc1nc(-c2ccc(C(C)C(=O)O)cc2)sc1C (stereo unspecified) | 3.99
CC(C(=O)O)c1ccc(-c2nc3c(s2)CCCC3)cc1 (stereo unspecified) | 4.41
CC(C)c1csc(-c2ccc(C(C)C(=O)O)cc2F)n1 (stereo unspecified) | 4.62
CCCCc1csc(-c2ccc(C(C)C(=O)O)cc2F)n1 (stereo unspecified) | 5.24
CCc1csc(-c2ccc(C(C)C(=O)O)cc2Cl)n1 (stereo unspecified) | 4.28
C=Cc1csc(-c2ccc(C(C)C(=O)O)cc2)n1 (stereo unspecified) | 3.62
Cc1nc(-c2ccc(C(C)C(=O)O)cc2F)sc1C (stereo unspecified) | 3.74
CC(C)c1csc(-c2ccc(C(C)C(=O)O)cc2)n1 (stereo unspecified) | 4.29
CCc1csc(-c2ccc(C(C)C(=O)O)cc2)n1 (stereo unspecified) | 3.75
CC(C(=O)O)c1ccc(-c2nccs2)c(C(F)(F)F)c1 (stereo unspecified) | 3.06
CCc1nc(-c2ccc(C(C)C(=O)O)cc2Cl)sc1C (stereo unspecified) | 4.62
CNC(=O)c1csc(-c2ccc(C(C)C(=O)O)cc2)n1 (stereo unspecified) | 2.45
CCc1csc(-c2ccc(C(C)C(=O)O)cc2F)n1 (stereo unspecified) | 4.16
CC(C(=O)O)c1ccc(-c2nccs2)c(O)c1 (stereo unspecified) | 3.18
Cc1csc(-c2ccc(C(C)C(=O)O)cc2)n1 (stereo unspecified) | 3.03
CC(C(=O)O)c1ccc(-c2nccs2)c(F)c1 (stereo unspecified) | 3.14
